≈ marks a conversion by molar mass, not a printed value. Calls of active or inactive are those of the source. The calls are words filed in the database; no cut-off is given here.
Legend:
Aspergillus niger [1] = experiment: Antifungal activity against Aspergillus niger at 10 mg/ml after 7 days by disc diffusion technique; format: functional; details: 168 h, read-out: IZ
Candida tropicalis [2] = experiment: Antifungal activity against Candida tropicalis at 10 mg/ml after 7 days by disc diffusion technique; format: functional; details: 168 h, read-out: IZ
Aspergillus flavus [3] = experiment: Antifungal activity against Aspergillus flavus at 10 mg/ml after 7 days by disc diffusion technique; format: functional; details: 168 h, read-out: IZ
Candida albicans [4] = experiment: Antifungal activity against Candida albicans at 10 mg/ml after 7 days by disc diffusion technique; format: functional; details: 168 h, read-out: IZ
Aspergillus niger [5] = experiment: Antifungal activity against Aspergillus niger after 7 days by disc diffusion technique; format: functional; details: 168 h
Aspergillus flavus [6] = experiment: Antifungal activity against Aspergillus flavus after 7 days by disc diffusion technique; format: functional; details: 168 h
Candida tropicalis [7] = experiment: Antifungal activity against Candida tropicalis after 7 days by disc diffusion technique; format: functional; details: 168 h
Candida albicans [8] = experiment: Antifungal activity against Candida albicans after 7 days by disc diffusion technique; format: functional; details: 168 h
Pseudomonas aeruginosa [9] = experiment: Antibacterial activity against Pseudomonas aeruginosa after 24 hrs by agar-diffusion technique; format: functional
Klebsiella pneumoniae [10] = experiment: Antibacterial activity against Klebsiella pneumoniae after 24 hrs by agar-diffusion technique; format: functional
Salmonella typhi [11] = experiment: Antibacterial activity against Salmonella typhi after 24 hrs by agar-diffusion technique; format: functional, Salmonella enterica subsp. enterica serovar Typhi; details: Salmonella enterica
Escherichia coli [12] = experiment: Antibacterial activity against Escherichia coli after 24 hrs by agar-diffusion technique; format: functional
Pseudomonas aeruginosa [13] = experiment: Antibacterial activity against Pseudomonas aeruginosa at 10 mg/ml after 24 hrs by agar-diffusion technique; format: functional; details: read-out: IZ
Klebsiella pneumoniae [14] = experiment: Antibacterial activity against Klebsiella pneumoniae at 10 mg/ml after 24 hrs by agar-diffusion technique; format: functional; details: read-out: IZ
Salmonella typhi [15] = experiment: Antibacterial activity against Salmonella typhi at 10 mg/ml after 24 hrs by agar-diffusion technique; format: functional, Salmonella enterica subsp. enterica serovar Typhi; details: Salmonella enterica, read-out: IZ
Escherichia coli [16] = experiment: Antibacterial activity against Escherichia coli at 10 mg/ml after 24 hrs by agar-diffusion technique; format: functional; details: read-out: IZ
[17] = tested on: Mycobacterium tuberculosis; experiment: Antitubercular activity against Mycobacterium tuberculosis H37Rv at 1 ug/ml after 4 weeks by Lowenstein-Jensen medium method; format: functional, organism-based
[18] = tested on: Mycobacterium tuberculosis; experiment: Antitubercular activity against Mycobacterium tuberculosis H37Rv at 10 ug/ml after 4 weeks by Lowenstein-Jensen medium method; format: functional, organism-based
[19] = tested on: Mycobacterium tuberculosis; experiment: Antitubercular activity against Mycobacterium tuberculosis H37Rv at 100 ug/ml after 4 weeks by Lowenstein-Jensen medium method; format: functional, organism-based

Structure (SMILES) | zone of inhibition at 10000 µg/mL (Aspergillus niger [1]) | zone of inhibition at 10000 µg/mL (Candida tropicalis [2]) | zone of inhibition at 10000 µg/mL (Aspergillus flavus [3]) | zone of inhibition at 10000 µg/mL (Candida albicans [4]) | MIC (Aspergillus niger [5]) | MIC (Aspergillus flavus [6]) | MIC (Candida tropicalis [7]) | MIC (Candida albicans [8]) | MIC (Pseudomonas aeruginosa [9]) | MIC (Klebsiella pneumoniae [10]) | MIC (Salmonella typhi [11]) | MIC (Escherichia coli [12]) | zone of inhibition at 10000 µg/mL (Pseudomonas aeruginosa [13]) | zone of inhibition at 10000 µg/mL (Klebsiella pneumoniae [14]) | zone of inhibition at 10000 µg/mL (Salmonella typhi [15]) | zone of inhibition at 10000 µg/mL (Escherichia coli [16]) | Activity [17] | Activity [18] | Activity [19]
Clc1ccccc1C(c1ccccc1)(c1ccccc1)n1ccnc1 [CLOTRIMAZOLE] | 23 mm | 21 mm | 19 mm | 20 mm | – | – | – | – | – | – | – | – | – | – | – | – | – | – | –
CCOC(=O)c1c(-c2ccc(OC)cc2)cc(-c2cccs2)c([N+](=O)[O-])c1N | 18 mm | 42 mm | 14 mm | 16 mm | 20 µg/mL (≈ 50.2 µM) | 20 µg/mL (≈ 50.2 µM) | 20 µg/mL (≈ 50.2 µM) | 20 µg/mL (≈ 50.2 µM) | 20 µg/mL (≈ 50.2 µM) | 20 µg/mL (≈ 50.2 µM) | 20 µg/mL (≈ 50.2 µM) | 20 µg/mL (≈ 50.2 µM) | 18 mm | 20 mm | 16 mm | 14 mm | Active | Active | Active
CCOC(=O)c1c(-c2ccc(OC)cc2)cc(-c2ccc[nH]2)c([N+](=O)[O-])c1N | 10 mm | 10 mm | 12 mm | 9 mm | 20 µg/mL (≈ 52.4 µM) | 20 µg/mL (≈ 52.4 µM) | 20 µg/mL (≈ 52.4 µM) | 20 µg/mL (≈ 52.4 µM) | 20 µg/mL (≈ 52.4 µM) | 20 µg/mL (≈ 52.4 µM) | 20 µg/mL (≈ 52.4 µM) | 20 µg/mL (≈ 52.4 µM) | 12 mm | 16 mm | 14 mm | 10 mm | Active | Active | Active
N#Cc1c(-c2ccccc2)cc(-c2ccco2)c([N+](=O)[O-])c1N | 8 mm | 8 mm | 14 mm | 10 mm | 20 µg/mL (≈ 65.5 µM) | 20 µg/mL (≈ 65.5 µM) | 20 µg/mL (≈ 65.5 µM) | 20 µg/mL (≈ 65.5 µM) | 20 µg/mL (≈ 65.5 µM) | 20 µg/mL (≈ 65.5 µM) | 20 µg/mL (≈ 65.5 µM) | 20 µg/mL (≈ 65.5 µM) | 14 mm | 12 mm | 16 mm | 17 mm | Active | Active | Active
O=C(O)c1cn(C2CC2)c2cc(N3CCNCC3)c(F)cc2c1=O [CIPROFLOXACIN] | – | – | – | – | – | – | – | – | – | – | – | – | 23 mm | 22 mm | 24 mm | – | – | – | –
N#Cc1c(-c2ccccc2)cc(-c2ccc[nH]2)c([N+](=O)[O-])c1N | 20 mm | 12 mm | 16 mm | 18 mm | 20 µg/mL (≈ 65.7 µM) | 20 µg/mL (≈ 65.7 µM) | 20 µg/mL (≈ 65.7 µM) | 20 µg/mL (≈ 65.7 µM) | 20 µg/mL (≈ 65.7 µM) | 20 µg/mL (≈ 65.7 µM) | 20 µg/mL (≈ 65.7 µM) | 20 µg/mL (≈ 65.7 µM) | 16 mm | 18 mm | 24 mm | 14 mm | Active | Active | Active
N#Cc1c(-c2ccccc2)cc(-c2cccs2)c([N+](=O)[O-])c1N | 15 mm | 21 mm | 12 mm | 24 mm | 20 µg/mL (≈ 62.2 µM) | 20 µg/mL (≈ 62.2 µM) | 20 µg/mL (≈ 62.2 µM) | 20 µg/mL (≈ 62.2 µM) | 20 µg/mL (≈ 62.2 µM) | 20 µg/mL (≈ 62.2 µM) | 20 µg/mL (≈ 62.2 µM) | 20 µg/mL (≈ 62.2 µM) | 10 mm | 8 mm | 9 mm | 12 mm | Active | Active | Active
NC(=O)c1cnccn1 | – | – | – | – | – | – | – | – | – | – | – | – | – | – | – | – | Active | Active | Active
CCOC(=O)c1c(-c2ccc(OC)cc2)cc(-c2ccco2)c([N+](=O)[O-])c1N | 10 mm | 8 mm | 9 mm | 7 mm | 20 µg/mL (≈ 52.3 µM) | 20 µg/mL (≈ 52.3 µM) | 20 µg/mL (≈ 52.3 µM) | 20 µg/mL (≈ 52.3 µM) | 20 µg/mL (≈ 52.3 µM) | 20 µg/mL (≈ 52.3 µM) | 20 µg/mL (≈ 52.3 µM) | 20 µg/mL (≈ 52.3 µM) | 8 mm | 9 mm | 7 mm | 10 mm | Active | Active | Active

— ChEMBL document CHEMBL2424519, “DABCO-promoted one-pot synthesis of heteroaryl-substituted benzenes and their biological evaluation” (2013)
